Some test systems named below: HCT-116 colon; TK-10 renal; RPMI-8226 leukemia; RXF 393 renal; SK-OV-3 ovarian; NCI-H522 lung; M14 melanoma; NCI-H23 lung; IGROV1 ovarian; OVCAR-8 ovarian; SN12C renal; HL-60(TB) leukemia; MDA-MB-435; NCI/ADR-RES ovarian; T-47D breast; DU-145 prostate; OVCAR-3 ovarian; MDA-N; MALME-3M melanoma; HS 578T breast.
Holding throughout (experiment): NCI tumour cell line growth inhibition, 48 h

The source of these data is PubChem BioAssay (NCI).

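Results reflect a 48-hour exposure of cells in 96-well plates to compound at five concentrations. TGI denotes the concentration required for complete inhibition of growth.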

Take `O=C(Nc1ccc(Cl)cc1)C(=O)C(C(=O)c1ccccc1-c1ccccc1)C1OC(=O)c2ccccc21` (stereo not drawn): the TGI in the test with HCT-116 colon is 32.1 µM; in the test with TK-10 renal it was 57.3 µM; with RPMI-8226 leukemia it was over 100 µM; with RXF 393 renal it was 24.4 µM; with SK-OV-3 ovarian it was 64.3 µM; with NCI-H522 lung, 28.3 µM. Further, the TGI was 42.4 µM with M14 melanoma; 53.4 µM with NCI-H23 lung; over 100 µM in the test on IGROV1 ovarian; 29.3 µM in the test with OVCAR-8 ovarian; 62.4 µM in the test with SN12C renal; 53.5 µM in the test with HL-60(TB) leukemia.

On to `COC(=O)C(Cc1cn(C(C)=O)c2ccccc12)P(=O)(OC)OC` (stereo not drawn), for which the TGI in the test on MDA-MB-435, with NCI/ADR-RES ovarian, in the test on T-47D breast, in the test on HCT-116 colon, with TK-10 renal and in the test with RPMI-8226 leukemia was over 100 µM throughout. In addition, the TGI in the test with DU-145 prostate, in the test with RXF 393 renal, with NCI-H522 lung, in the test with OVCAR-3 ovarian, with M14 melanoma and in the test on NCI-H23 lung was over 100 µM throughout. The TGI with IGROV1 ovarian, in the test on OVCAR-8 ovarian, with SN12C renal, with HL-60(TB) leukemia and in the test with MDA-N was over 100 µM each time.

For `Nc1nc(N)c2cc(Sc3ccc4nc(N)nc(N)c4c3)ccc2n1`, the TGI with MDA-MB-435, in the test on NCI/ADR-RES ovarian, with MALME-3M melanoma, with T-47D breast, in the test on HCT-116 colon and with TK-10 renal was over 100 µM in each case. Moreover, the TGI in the test on RPMI-8226 leukemia is over 100 µM; in the test on HS 578T breast it was over 100 µM; in the test with DU-145 prostate, over 100 µM; in the test with RXF 393 renal, over 100 µM; with SK-OV-3 ovarian, over 100 µM; in the test with OVCAR-3 ovarian it was over 31.6 µM. In addition, the TGI in the test with M14 melanoma, in the test on IGROV1 ovarian, in the test with OVCAR-8 ovarian, in the test on SN12C renal, in the test with HL-60(TB) leukemia and with MDA-N was over 100 µM in each case.

Take `O=C(Nc1cccc2ccccc12)Nn1cnnc1`: the TGI with MDA-MB-435, in the test on MALME-3M melanoma, with T-47D breast, with HCT-116 colon, in the test on TK-10 renal and in the test with RPMI-8226 leukemia was over 100 µM throughout. Further, the TGI in the test with HS 578T breast, in the test with DU-145 prostate, in the test on SK-OV-3 ovarian, with NCI-H522 lung, in the test on OVCAR-3 ovarian and in the test on M14 melanoma was over 100 µM each time. Moreover, the TGI in the test on NCI-H23 lung, with IGROV1 ovarian, in the test on OVCAR-8 ovarian, in the test with SN12C renal, in the test with HL-60(TB) leukemia and with MDA-N was over 100 µM each time.

As to `C/C1=C/C(C)CC(C)OC(=O)C(C)NC(=O)C(Cc2ccc(O)c(I)c2)N(C)C(=O)CNC(=O)C(C)C1` (stereo not drawn), the TGI with MDA-MB-435 is 16.6 µM; with NCI/ADR-RES ovarian, over 77.3 µM; in the test with MALME-3M melanoma, 6.22 µM; in the test on T-47D breast, over 100 µM; in the test with HCT-116 colon, over 100 µM; in the test with RPMI-8226 leukemia it was 0.757 µM. The TGI with HS 578T breast is 0.723 µM; in the test on DU-145 prostate it was over 100 µM; in the test with RXF 393 renal, under 0.01 µM; in the test on SK-OV-3 ovarian, 2.16 µM; in the test on OVCAR-3 ovarian it was under 0.01 µM; in the test on M14 melanoma, over 100 µM. Further, the TGI in the test on NCI-H23 lung was over 100 µM; with IGROV1 ovarian it was 0.0236 µM; in the test with OVCAR-8 ovarian, over 100 µM; with SN12C renal, over 100 µM; in the test with HL-60(TB) leukemia, under 0.01 µM; in the test with MDA-N it was over 100 µM.
